Data taken from patent US9296725B2, “Heterocyclyl pyrimidine analogues as TYK2 inhibitors” (Cellzome Limited, priority 2012, dated 2016).

Tests used:
TYK2 = biological target: T1, TYK2 (Homo sapiens, UniProt P29597); experiment: Kinobeads assay, TYK2 (competition binding in mixed Molt4/Ramos cell lysate, dot blot detection); conditions: Kinobeads assay, Molt4/Ramos lysate; read-out: TYK2 Band (Kinobeads assay potency, IC50)
T1 construct: endogenous in cells; host or cells: Molt4 (ATCC CRL-1582) and Ramos (ATCC CRL-1596), mixed lysate 1:2
In short: (§1)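 JAK2 and TYK2 retained on Kinobeads (immobilized aminopyrido-pyrimidine ligand) from 1:2 Molt4:Ramos lysate (10 mg/mL) were quantified by antibody dot blot (Odyssey infrared) after 3 h cold incubation with compound. Nine-step 1:3 dilution series; IC50 calculated from curves.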

JAK2 = biological target: T2, JAK2 (Homo sapiens, UniProt O60674); experiment: Kinobeads assay, JAK2 (competition binding in mixed Molt4/Ramos cell lysate, dot blot detection); conditions: read-out: JAK2 Band (Kinobeads assay potency, IC50)
T2 construct: endogenous in cells; host or cells: Molt4 (ATCC CRL-1582) and Ramos (ATCC CRL-1596), mixed lysate 1:2
In short: as §1

T2 sequence (O60674 whole entry): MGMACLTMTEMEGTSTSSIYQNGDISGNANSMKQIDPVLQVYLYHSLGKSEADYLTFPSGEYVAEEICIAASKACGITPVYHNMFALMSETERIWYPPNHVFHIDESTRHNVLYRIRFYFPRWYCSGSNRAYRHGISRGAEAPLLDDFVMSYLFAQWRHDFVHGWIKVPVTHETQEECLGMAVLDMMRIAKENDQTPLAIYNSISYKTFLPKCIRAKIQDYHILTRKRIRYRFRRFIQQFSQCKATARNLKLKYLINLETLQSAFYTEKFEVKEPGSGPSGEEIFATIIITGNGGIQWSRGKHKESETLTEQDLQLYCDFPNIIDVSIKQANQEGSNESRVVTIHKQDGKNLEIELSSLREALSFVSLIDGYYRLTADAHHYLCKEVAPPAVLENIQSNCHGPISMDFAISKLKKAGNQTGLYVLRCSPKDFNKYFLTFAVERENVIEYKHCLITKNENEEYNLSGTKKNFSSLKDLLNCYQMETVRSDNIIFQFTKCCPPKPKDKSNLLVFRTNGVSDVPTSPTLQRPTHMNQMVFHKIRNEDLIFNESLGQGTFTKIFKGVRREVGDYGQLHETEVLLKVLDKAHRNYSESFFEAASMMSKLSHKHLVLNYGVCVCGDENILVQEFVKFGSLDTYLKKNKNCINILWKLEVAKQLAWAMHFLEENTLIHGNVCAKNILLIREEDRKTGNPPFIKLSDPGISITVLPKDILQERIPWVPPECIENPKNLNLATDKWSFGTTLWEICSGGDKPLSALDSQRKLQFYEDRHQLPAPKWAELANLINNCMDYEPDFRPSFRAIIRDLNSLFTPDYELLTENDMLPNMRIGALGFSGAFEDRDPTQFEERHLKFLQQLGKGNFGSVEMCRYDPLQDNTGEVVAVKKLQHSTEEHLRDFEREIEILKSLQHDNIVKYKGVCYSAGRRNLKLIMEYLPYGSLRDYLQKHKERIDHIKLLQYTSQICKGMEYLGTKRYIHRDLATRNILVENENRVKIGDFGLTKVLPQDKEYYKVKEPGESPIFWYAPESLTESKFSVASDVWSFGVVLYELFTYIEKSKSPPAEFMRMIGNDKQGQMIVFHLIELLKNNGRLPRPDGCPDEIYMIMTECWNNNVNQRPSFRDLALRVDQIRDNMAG
T1 sequence (P29597 whole entry): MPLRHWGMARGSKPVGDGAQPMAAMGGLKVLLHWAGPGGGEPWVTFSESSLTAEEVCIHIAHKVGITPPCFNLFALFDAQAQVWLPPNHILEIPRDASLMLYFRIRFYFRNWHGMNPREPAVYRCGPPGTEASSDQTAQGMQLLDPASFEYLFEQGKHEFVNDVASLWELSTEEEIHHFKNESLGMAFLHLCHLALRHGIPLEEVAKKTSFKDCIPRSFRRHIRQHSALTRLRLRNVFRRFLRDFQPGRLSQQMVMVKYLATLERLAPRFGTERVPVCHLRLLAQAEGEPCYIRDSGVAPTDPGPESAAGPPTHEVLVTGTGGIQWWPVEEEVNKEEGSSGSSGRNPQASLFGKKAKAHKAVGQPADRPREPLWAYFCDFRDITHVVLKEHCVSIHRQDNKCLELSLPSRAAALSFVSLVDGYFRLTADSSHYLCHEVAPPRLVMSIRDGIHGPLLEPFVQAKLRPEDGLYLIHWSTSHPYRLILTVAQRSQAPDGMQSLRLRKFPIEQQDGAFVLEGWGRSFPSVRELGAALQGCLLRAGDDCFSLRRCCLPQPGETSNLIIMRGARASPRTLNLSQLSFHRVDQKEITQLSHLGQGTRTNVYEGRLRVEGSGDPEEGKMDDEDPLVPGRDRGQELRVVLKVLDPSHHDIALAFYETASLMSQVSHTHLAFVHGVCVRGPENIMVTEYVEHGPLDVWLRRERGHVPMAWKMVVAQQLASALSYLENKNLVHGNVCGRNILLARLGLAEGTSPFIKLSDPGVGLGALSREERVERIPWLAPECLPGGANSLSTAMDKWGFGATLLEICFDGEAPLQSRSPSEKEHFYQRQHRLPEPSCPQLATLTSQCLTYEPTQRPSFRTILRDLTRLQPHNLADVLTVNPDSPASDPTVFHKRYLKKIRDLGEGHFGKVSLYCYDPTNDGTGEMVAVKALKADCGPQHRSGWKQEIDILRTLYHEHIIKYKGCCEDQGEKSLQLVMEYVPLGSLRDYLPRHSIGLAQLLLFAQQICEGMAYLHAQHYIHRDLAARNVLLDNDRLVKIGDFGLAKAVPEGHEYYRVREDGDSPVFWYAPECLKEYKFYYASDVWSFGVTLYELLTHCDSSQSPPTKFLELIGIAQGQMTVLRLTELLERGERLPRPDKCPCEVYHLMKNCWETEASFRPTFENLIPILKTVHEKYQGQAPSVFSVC

Structure (SMILES)	IC50 (TYK2)	IC50 (JAK2)
CS(=O)(=O)Cc1cccc(CNc2nc(Nc3cnn(CC(N)=O)c3)ncc2Cl)c1 [Example I-443]	0.1 to 1 µM	1 to 10 µM
CN(C)C(=O)Cn1cc(Nc2ncc(Cl)c(NCc3ccccc3S(C)(=O)=O)n2)cn1 [Example I-452]	0.1 to 1 µM	0.1 to 1 µM
NS(=O)(=O)c1cccc(CNc2nc(Nc3cnn(CCO)c3)ncc2Cl)c1 [Example I-199]	0.1 to 1 µM	1 to 10 µM
COc1ccc(S(C)(=O)=O)cc1CNc1nc(Nc2cnn(CC(F)F)c2)ncc1F [Example I-480]	0.1 to 1 µM	1 to 10 µM
Cn1cc(Nc2ncc(F)c(NCc3cc(F)ccc3S(C)(=O)=O)n2)cn1 [Example I-487]	0.1 to 1 µM	0.1 to 1 µM
COc1cccc(CNc2nc(Nc3cnn(CCO)c3)ncc2Cl)c1 [Example I-186]	0.1 to 1 µM	1 to 10 µM
CN(C)C(=O)Cn1cc(Nc2ncc(Cl)c(NCc3cccc(C(N)=O)c3)n2)cn1 [Example I-390]	0.1 to 1 µM	1 to 10 µM
CS(=O)(=O)NCc1cccc(CNc2nc(Nc3cnn(CCO)c3)ncc2Cl)c1 [Example I-417]	0.1 to 1 µM	0.1 to 1 µM
CCOc1cccc(CNc2nc(Nc3cnn(CCO)c3)ncc2Cl)c1 [Example I-294]	0.1 to 1 µM	1 to 10 µM
Cn1cc(Nc2ncc(Cl)c(NCc3cccc(S(N)(=O)=O)c3)n2)cn1 [Example I-198]	0.1 to 1 µM	1 to 10 µM
[2H]C([2H])(O)C([2H])([2H])n1cc(Nc2ncc(Cl)c(NCc3cccc(OC)c3)n2)cn1 [Example I-235]	0.1 to 1 µM	1 to 10 µM
CC(C)Oc1cccc(CNc2nc(Nc3cnn(CCO)c3)ncc2Cl)c1 [Example I-334]	0.1 to 1 µM	1 to 10 µM
CS(=O)(=O)c1cccc(CNc2nc(Nc3cnn(CC(F)F)c3)ncc2Cl)c1 [Example I-467]	1 to 10 µM	1 to 10 µM
COc1c(F)cccc1CNc1nc(Nc2cnn(CC(N)=O)c2)ncc1Cl [Example I-404]	0.1 to 1 µM	0.1 to 1 µM
CNC(=O)Cn1cc(Nc2ncc(Cl)c(NCc3ccccc3S(C)(=O)=O)n2)cn1 [Example I-451]	1 to 10 µM	1 to 10 µM
CS(=O)(=O)c1ccc(F)cc1CNc1nc(Nc2cnn(CC(=O)NC3CC3)c2)ncc1Cl [Example I-74]	0.01 to 0.1 µM	0.1 to 1 µM
N#Cc1cccc(CNc2nc(Nc3cnn(CC(=O)N4CCOCC4)c3)ncc2Cl)c1 [Example I-172]	0.01 to 0.1 µM	0.1 to 1 µM
COc1ccc(F)c(CNc2nc(Nc3cnn(CC(N)=O)c3)ncc2F)c1F [Example I-384]	0.01 to 0.1 µM	1 to 10 µM
OCCn1cc(Nc2ncc(Cl)c(NCc3cc(OC(F)F)ccc3F)n2)cn1 [Example I-413]	0.01 to 0.1 µM	0.1 to 1 µM
CN(C)C(=O)Cn1cc(Nc2ncc(F)c(NCc3cc(F)cc(C(F)(F)F)c3)n2)cn1 [Example I-331]	0.1 to 1 µM	1 to 10 µM
Cc1cnc(Nc2cnn(CC(F)F)c2)nc1NCc1c(F)ccc(F)c1F [Example I-87]	0.01 to 0.1 µM	0.1 to 1 µM
C[C@H](CO)NC(=O)Cn1cc(Nc2nccc(NCc3c(F)cncc3F)n2)cn1 [Example I-147]	0.01 to 0.1 µM	> 10 µM
O=C(Cn1cc(Nc2nccc(NCc3c(F)cccc3F)n2)cn1)NC1CC1 [Example I-152]	0.01 to 0.1 µM	1 to 10 µM
COc1c(F)cccc1CNc1nc(Nc2cnn(CC(=O)O)c2)ncc1Cl [Example I-403]	0.1 to 1 µM	1 to 10 µM
CCOc1ccc(F)c(CNc2nc(Nc3cnn(CC(=O)NC)c3)ncc2Cl)c1F [Example I-269]	0.01 to 0.1 µM	1 to 10 µM
CC(O)Cn1cc(Nc2ncc(Cl)c(NCc3ccccc3)n2)cn1 (centres unmarked) [Example I-216]	0.1 to 1 µM	1 to 10 µM
CNC(=O)Cn1cc(Nc2ncc(Cl)c(NCc3cccc(OC)c3)n2)cn1 [Example I-243]	0.1 to 1 µM	1 to 10 µM
N#Cc1c(F)cccc1CNc1nc(Nc2cnn(CCO)c2)ncc1Cl [Example I-287]	0.1 to 1 µM	0.1 to 1 µM
Cc1cnc(Nc2cnn(CC(F)F)c2)nc1NCc1cccc(F)c1F [Example I-347]	1 to 10 µM	1 to 10 µM

Continued, values first:

IC50 (TYK2)	IC50 (JAK2)	Structure (SMILES)
0.01 to 0.1 µM	1 to 10 µM	N#CCOc1cccc(CNc2nc(Nc3cnn(CC(=O)N4CCOCC4)c3)ncc2Cl)c1 [Example I-366]
0.01 to 0.1 µM	0.1 to 1 µM	Fc1ccc(F)c(CNc2nc(Nc3cnn(CC(F)F)c3)ncc2Cl)c1F [Example I-336]
≤ 0.01 µM	1 to 10 µM	O=C(Cn1cc(Nc2ncc(F)c(NCc3c(F)cc(F)cc3F)n2)cn1)N1CCOCC1 [Example I-26]
≤ 0.01 µM	1 to 10 µM	O=C(Cn1cc(Nc2nccc(NCc3c(F)ccc(F)c3F)n2)cn1)NC1CC1 [Example I-144]
0.01 to 0.1 µM	1 to 10 µM	Cc1cnc(Nc2cnn(CC(=O)NC3CC3)c2)nc1NCc1cccc(F)c1F [Example I-341]
0.01 to 0.1 µM	0.1 to 1 µM	Cc1cnc(Nc2cnn(CC(=O)N(C)C)c2)nc1NCc1c(F)cc(F)cc1F [Example I-19]
0.01 to 0.1 µM	1 to 10 µM	Cc1cnc(Nc2cnn(C)c2)nc1NCc1c(F)cc(F)cc1F [Example I-301]
≤ 0.01 µM	0.1 to 1 µM	O=C(Cn1cc(Nc2ncc(Cl)c(NCc3c(F)cccc3F)n2)cn1)N1CCOCC1 [Example I-161]
0.01 to 0.1 µM	1 to 10 µM	O=C(Cn1cc(Nc2ncc(Cl)c(NCc3ccccc3)n2)cn1)N1CCCC1 [Example I-196]
≤ 0.01 µM	0.1 to 1 µM	COc1ccc(Cl)c(CNc2ccnc(Nc3cnn(CC(=O)N[C@@H](C)CO)c3)n2)c1F [Example I-122]
0.01 to 0.1 µM	1 to 10 µM	CS(=O)(=O)c1ccc(F)c(CNc2nc(Nc3cnn(CC(N)=O)c3)ncc2F)c1 [Example I-116]
0.01 to 0.1 µM	1 to 10 µM	CN(C)C(=O)Cn1cc(Nc2ncc(Cl)c(NCc3cc(OC(F)F)ccc3F)n2)cn1 [Example I-414]
0.01 to 0.1 µM	1 to 10 µM	Cc1ccc(F)c(CNc2nc(Nc3cnn(CC(N)=O)c3)ncc2Cl)c1F [Example I-282]
0.01 to 0.1 µM	> 10 µM	NS(=O)(=O)c1ccc(CNc2nc(Nc3cnn(CC(=O)N4CCCCC4)c3)ncc2F)cc1 [Example I-30]
≤ 0.01 µM	0.1 to 1 µM	COc1ccc(F)c(CNc2nc(Nc3cnn(CC(=O)N(C)C)c3)ncc2C)c1F [Example I-20]
0.01 to 0.1 µM	1 to 10 µM	O=C(Cn1cc(Nc2nccc(NCc3c(F)cc(F)cc3F)n2)cn1)NC1CC1 [Example I-80]
0.01 to 0.1 µM	0.1 to 1 µM	CS(=O)(=O)c1ccc(F)cc1CNc1nc(Nc2cn[nH]c2)ncc1Cl [Example I-72]
0.01 to 0.1 µM	> 10 µM	O=C(Cn1cc(Nc2nccc(NCc3c(F)cc(F)cc3F)n2)cn1)NC1CC1(F)F (centres unmarked) [Example I-91]
0.01 to 0.1 µM	> 10 µM	CC(C#N)NC(=O)Cn1cc(Nc2nccc(NCc3c(F)cc(F)cc3F)n2)cn1 (centres unmarked) [Example I-5, N-(1-cyanoethyl)-2-(4-((4-((2,4,6-trifluorobenzyl)amino)pyrimidin-2-yl)amino)-1H-pyrazol-1-yl)acetamide]
≤ 0.01 µM	0.1 to 1 µM	COc1ccc(Cl)c(CNc2nc(Nc3cnn(CC(=O)N4CCOCC4)c3)ncc2F)c1F [Example I-81]
0.01 to 0.1 µM	1 to 10 µM	NC(=O)Cn1cc(Nc2ncc(Cl)c(NCc3c(F)cc(F)cc3F)n2)cn1 [Example I-387]
≤ 0.01 µM	0.1 to 1 µM	COc1ccc(Cl)c(CNc2ccnc(Nc3cnn(CC(=O)N[C@H](C)CO)c3)n2)c1F [Example I-123]
≤ 0.01 µM	1 to 10 µM	CC(C)NC(=O)Cn1cc(Nc2ncc(F)c(NCc3c(F)cccc3F)n2)cn1 [Example I-66]
≤ 0.01 µM	0.1 to 1 µM	Cc1cnc(Nc2cnn(CC(=O)N3CCOCC3)c2)nc1NCc1c(F)cc(S(N)(=O)=O)cc1F [Example I-378]
≤ 0.01 µM	0.1 to 1 µM	Cc1cnc(Nc2cnn(CC(=O)N[C@H](C)CO)c2)nc1NCc1c(F)cc(F)cc1F [Example I-35]
≤ 0.01 µM	0.1 to 1 µM	COc1ccc(Cl)c(CNc2nc(Nc3cnn(CC(=O)NC(C)C)c3)ncc2F)c1F [Example I-84]
